According to patent publication US10294202B2, “Pyrrolidinones as herbicides” (FMC Corporation, priority 2013, dated 2019):

How the values were obtained:
[1] = test system: corn; assay: Test A pre-/postemergence herbicide test; type: in vivo, Zea mays; details: Postemergence
How it was run: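 Formulated compound (non-phytotoxic solvent, surfactant) sprayed pre- onto soil of seeded loam/sand pots or post- onto seedlings at 1–2 leaves; ~10 d greenhouse; 0–100 visual control rating versus untreated.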

[2] = test system: ducksalad; assay: Test C flooded paddy test; type: in vivo, Heteranthera limosa; details: Flood
How it was run: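 Plants grown to the 2-leaf stage; pots flooded to 3 cm above soil and compound applied directly into the paddy water, depth kept throughout. Greenhouse 13 to 15 days, then visual rating vs untreated controls on 0–100 scale (0 no effect, 100 complete control); dash means no result.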

[3] = test system: blackgrass; assay: Test C pre-/postemergence herbicide test; type: in vivo, Alopecurus myosuroides
How it was run: (§1)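 Compound solutions contained surfactant in a non-phytotoxic solvent. These were sprayed onto pots of loam/sand sown with seeds, and onto young plants (2 to 18 cm, 1- to 4-leaf) in sphagnum peat–vermiculite mix. Visual injury scores (0 none, 100 complete control) were recorded after 13 to 15 days.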

[4] = test system: wheat (winter wheat); assay: Test C pre-/postemergence herbicide test; type: in vivo, Triticum aestivum
How it was run: as §1

[5] = test system: chickweed; assay: Test C postemergence herbicide test; type: in vivo, Stellaria media
How it was run: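 Greenhouse pot plants at 2 to 18 cm height (1- to 4-leaf stage) received a postemergence application of formulated test chemical. Visual ratings against untreated controls were made after 13 to 15 days, on a 0 (no effect) to 100 (complete control) scale.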

[6] = 125 g ai/ha, 0 to 100 scale, 0 is no effect, 100 is complete control
[7] = 31 g ai/ha, scale of 0 to 100 where 0 is no effect and 100 is complete control, 13 to 15 days
[8] = 62 g ai/ha, scale of 0 to 100 where 0 is no effect and 100 is complete control, 13 to 15 days
[9] = 125 g ai/ha, scale of 0 to 100 where 0 is no effect and 100 is complete control, 13 to 15 days
[10] = 250 g ai/ha, scale of 0 to 100 where 0 is no effect and 100 is complete control, 13 to 15 days
[11] = Postemergence, 31 g ai/ha, scale 0 to 100 (0 no effect, 100 complete control)
[12] = Postemergence, 62 g ai/ha, scale 0 (no effect) to 100 (complete control)
[13] = Postemergence, 125 g ai/ha, scale 0 to 100 (0 no effect, 100 complete control)
[14] = Postemergence, 250 g ai/ha, scale 0 to 100 (0 no effect, 100 complete control)
[15] = Preemergence, 31 g ai/ha, scale 0 to 100, 0 is no effect and 100 is complete control
[16] = Preemergence, 62 g ai/ha, scale 0 to 100
[17] = Preemergence, 125 g ai/ha, scale 0 to 100 (0 no effect, 100 complete control)
[18] = Preemergence, 62 g ai/ha, scale 0 to 100 (0 no effect, 100 complete control)
[19] = 31 g ai/ha, scale 0 to 100 (0 no effect, 100 complete control)
[20] = 62 g ai/ha, scale 0 (no effect) to 100 (complete control)
[21] = 125 g ai/ha, scale 0 to 100 (0 no effect, 100 complete control)
[22] = 250 g ai/ha, scale 0 to 100 (0 no effect, 100 complete control)

O=C1NCC(c2cccc(OC(F)F)c2)C1C(=O)Nc1ccccc1F (stereo not shown) [Compound 223]
Plant response rating, Corn [1, 6]: 0 | Corn plant response rating (0 to 100 scale, 0 is no effect, 100 is complete control) ([1]; 500 g ai/ha): 50 | Plant response rating, Ducksalad [2, 7]: 30 | Plant response rating, Ducksalad [2, 8]: 50 | Plant response rating, Ducksalad [2, 9]: 65 | Plant response rating, Ducksalad [2, 10]: 95 | Plant response rating, Blackgrass [3, 11]: 0 | Plant response rating, Blackgrass [3, 12]: 0 | Plant response rating, Blackgrass [3, 13]: 0 | Plant response rating, Blackgrass [3, 14]: 0 | Blackgrass plant response rating [3, 15]: 35 | Plant response rating, Blackgrass [3, 16]: 35 | Plant response rating, Blackgrass [3, 17]: 85 | Plant response rating (scale of 0 to 100), Blackgrass ([3]; Preemergence, 250 g ai/ha): 85 | Plant response rating, Wheat [4, 11]: 0 | Plant response rating, Wheat [4, 12]: 0 | Plant response rating, Wheat [4, 13]: 0 | Plant response rating, Wheat [4, 14]: 0 | Wheat plant response rating [4, 15]: 0 | Wheat plant response rating [4, 18]: 5 | Plant response rating, Wheat [4, 17]: 10 | Plant response rating (scale of 0 to 100), Wheat ([4]; Preemergence, 250 g ai/ha): 35 | Plant response rating, Chickweed [5, 19]: 40 | Plant response rating, Chickweed [5, 20]: 45 | Plant response rating, Chickweed [5, 21]: 50 | Plant response rating, Chickweed [5, 22]: 80

O=C1NCC(c2cccc(C(F)(F)F)c2)C1C(=O)Nc1ccc(F)cc1F (racemic) [Compound 207]
Plant response rating, Corn [1, 6]: 50 | Corn plant response rating (0 to 100 scale, 0 is no effect, 100 is complete control) ([1]; 500 g ai/ha): 70 | Plant response rating, Ducksalad [2, 9]: 60 | Plant response rating, Ducksalad [2, 10]: 75 | Plant response rating, Ducksalad ([2]; 500 g ai/ha, scale 0 to 100): 100 | Plant response rating, Ducksalad ([2]; 1000 g ai/ha, scale 0 to 100): 80 | Plant response rating, Blackgrass [3, 11]: 0 | Plant response rating, Blackgrass [3, 12]: 0 | Plant response rating, Blackgrass [3, 13]: 0 | Plant response rating, Blackgrass [3, 14]: 0 | Blackgrass plant response rating [3, 15]: 0 | Plant response rating, Blackgrass [3, 16]: 80 | Plant response rating, Blackgrass [3, 17]: 85 | Plant response rating (scale of 0 to 100), Blackgrass ([3]; Preemergence, 250 g ai/ha): 90 | Plant response rating, Wheat [4, 11]: 0 | Plant response rating, Wheat [4, 12]: 0 | Plant response rating, Wheat [4, 13]: 0 | Plant response rating, Wheat [4, 14]: 0 | Wheat plant response rating [4, 15]: 0 | Wheat plant response rating [4, 18]: 0 | Plant response rating, Wheat [4, 17]: 5 | Plant response rating (scale of 0 to 100), Wheat ([4]; Preemergence, 250 g ai/ha): 45 | Plant response rating, Chickweed [5, 19]: 30 | Plant response rating, Chickweed [5, 20]: 50 | Plant response rating, Chickweed [5, 21]: 60 | Plant response rating, Chickweed [5, 22]: 90

O=C1NCC(c2cccc(Cl)c2)C1C(=O)Nc1cccc(F)c1F (racemic) [Compound 275]
Plant response rating, Corn [1, 6]: 40 | Plant response rating, Corn ([1]; 500 g ai/ha, 0 to 100 scale (0 no effect, 100 complete control)): 90 | Plant response rating, Ducksalad [2, 8]: 85 | Plant response rating, Ducksalad [2, 9]: 100 | Plant response rating, Ducksalad [2, 10]: 100 | Plant response rating, Ducksalad ([2]; 500 g ai/ha, scale 0 to 100): 100 | Plant response rating, Blackgrass [3, 11]: 0 | Plant response rating, Blackgrass [3, 12]: 0 | Plant response rating, Blackgrass [3, 13]: 5 | Plant response rating, Blackgrass [3, 14]: 40 | Blackgrass plant response rating [3, 15]: 45 | Blackgrass plant response rating [3, 18]: 60 | Plant response rating, Blackgrass [3, 17]: 70 | Plant response rating (scale of 0 to 100), Blackgrass ([3]; Preemergence, 250 g ai/ha): 80 | Plant response rating, Wheat [4, 11]: 0 | Plant response rating, Wheat [4, 12]: 0 | Plant response rating, Wheat [4, 13]: 0 | Plant response rating, Wheat [4, 14]: 0 | Wheat plant response rating [4, 15]: 5 | Wheat plant response rating [4, 18]: 45 | Plant response rating (scale of 0 to 100), Wheat ([4]; Preemergence, 250 g ai/ha): 90 | Plant response rating, Chickweed [5, 19]: 50 | Plant response rating, Chickweed [5, 20]: 60 | Plant response rating, Chickweed [5, 21]: 85 | Plant response rating, Chickweed [5, 22]: 85

O=C1NCC(c2ccc(C(F)(F)F)cc2)C1C(=O)Nc1ccc(F)c(F)c1F (stereo not shown) [Compound 232]
Plant response rating, Corn [1, 6]: 80 | Corn plant response rating (0 to 100 scale, 0 is no effect, 100 is complete control) ([1]; 500 g ai/ha): 80 | Plant response rating, Ducksalad [2, 7]: 50 | Plant response rating, Ducksalad [2, 8]: 75 | Plant response rating, Ducksalad [2, 9]: 75 | Plant response rating, Ducksalad [2, 10]: 95 | Plant response rating, Blackgrass [3, 11]: 0 | Plant response rating, Blackgrass [3, 12]: 0 | Plant response rating, Blackgrass [3, 13]: 0 | Plant response rating, Blackgrass [3, 14]: 0 | Blackgrass plant response rating [3, 15]: 60 | Plant response rating, Blackgrass [3, 16]: 70 | Plant response rating, Blackgrass [3, 17]: 70 | Plant response rating (scale of 0 to 100), Blackgrass ([3]; Preemergence, 250 g ai/ha): 85 | Plant response rating, Wheat [4, 11]: 0 | Plant response rating, Wheat [4, 12]: 0 | Plant response rating, Wheat [4, 13]: 5 | Plant response rating, Wheat [4, 14]: 5 | Wheat plant response rating [4, 15]: 0 | Wheat plant response rating [4, 18]: 0 | Plant response rating, Wheat [4, 17]: 0 | Plant response rating (scale of 0 to 100), Wheat ([4]; Preemergence, 250 g ai/ha): 5 | Plant response rating, Chickweed [5, 19]: 70 | Plant response rating, Chickweed [5, 20]: 85 | Plant response rating, Chickweed [5, 21]: 85 | Plant response rating, Chickweed [5, 22]: 85
